{"source": "patent US9464082B2", "about": "“Aryl and arylalkyl substituted pyrazolyl and pyrimidinyl tricyclic enones as antioxidant inflammation modulators” (AbbVie Inc., priority 2014, dated 2016)", "tested_on": "IFNγ-Induced NO Production", "assay": "Nitric Oxide Suppression Assay (Suppression of IFNγ-Induced NO Production)", "type": "cell-based", "conditions": "RAW264.7; RAW 264.7 mouse macrophage cells; 2 hour pre-treatment with compound (3 μM to 0.3 nM, 10 point curve); 20 ng/mL interferon gamma, ~18 hour; Griess detection; n=2-3 in duplicates", "in_short": "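Griess-based absorbance read (520–550 nm) of supernatant after RAW 264.7 mouse macrophages received 10-point compound dilutions (3 μM–0.3 nM, DMSO ≤1%) for 2 h, then 20 ng/mL IFNγ for ~18 h at 37 °C. Signal normalised to IFNγ-only peak; IC50 fitted to mean of n=2-3 duplicates.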"}
{"smiles": "C[C@@H]1C(=O)C(C#N)=C[C@]2(c3ccccc3)c3n[nH]c(-c4cnn(-c5ccc(C#N)cc5)c4)c3CC[C@@H]12", "note": "[Example 157, (5aS,6S,9aR)-3-[1-(4-cyanophenyl)-1H-pyrazol-4-yl]-6-methyl-7-oxo-9a-phenyl-4,5,5a,6,7,9a-hexahydro-2H-benzo[g]indazole-8-carbonitrile]", "values": [{"measurement": "IC50", "result": 44.4, "unit": "nM"}]}
{"smiles": "C[C@@H]1C(=O)C(C#N)=C[C@]2(c3cccc(O)c3)c3ncncc3CC[C@@H]12", "note": "[Example 137, (6aS,7S,10aR)-10a-(3-hydroxyphenyl)-7-methyl-8-oxo-5,6,6a,7,8,10a-hexahydrobenzo[h]quinazoline-9-carbonitrile]", "values": [{"measurement": "IC50", "result": 8.93, "unit": "nM"}]}
{"smiles": "C[C@@H]1C(=O)C(C#N)=C[C@]2(c3cccc(C(=O)O)c3)c3ncncc3CC[C@@H]12", "note": "[Example 60, 3-[(6aS,7S,10aR)-9-cyano-7-methyl-8-oxo-6,6a,7,8-tetrahydrobenzo[h]quinazolin-10a(5H)-yl]benzoic acid]", "values": [{"measurement": "IC50", "result": "> 3000", "unit": "nM"}]}
{"smiles": "C[C@@H]1C(=O)C(C#N)=C[C@]2(c3ccccc3)c3n[nH]c(-c4cnn(-c5cccnc5)c4)c3CC[C@@H]12", "note": "[Example 158, (5aS,6S,9aR)-6-methyl-7-oxo-9a-phenyl-3-[1-(pyridin-3-yl)-1H-pyrazol-4-yl]-4,5,5a,6,7,9a-hexahydro-2H-benzo[g]indazole-8-carbonitrile]", "values": [{"measurement": "IC50", "result": 33, "unit": "nM"}]}
{"smiles": "Cc1nc(-c2ccc(=O)n(C)c2)c2c(n1)[C@@]1(c3ccccc3)C=C(C#N)C(=O)[C@@H](C)[C@@H]1CC2", "note": "[Example 44, (6aS,7S,10aR)-2,7-dimethyl-4-(1-methyl-6-oxo-1,6-dihydropyridin-3-yl)-8-oxo-10a-phenyl-5,6,6a,7,8,10a-hexahydrobenzo[h]quinazoline-9-carbonitrile]", "values": [{"measurement": "IC50", "result": 51.1, "unit": "nM"}]}
{"smiles": "COc1nc(Cl)nc2c1CC[C@H]1[C@H](C)C(=O)C(C#N)=C[C@]21c1ccccc1", "note": "[Example 102, (6aS,7S,10aR)-2-chloro-4-methoxy-7-methyl-8-oxo-10a-phenyl-5,6,6a,7,8,10a-hexahydrobenzo[h]quinazoline-9-carbonitrile]", "values": [{"measurement": "IC50", "result": 3.97, "unit": "nM"}]}
{"smiles": "C[C@@H]1C(=O)C(C#N)=C[C@]2(c3ccccc3)c3nn(C)c(-c4ccccc4)c3CC[C@@H]12", "note": "(racemic) [Example 2, rac-(5aS,6S,9aR)-2,6-dimethyl-7-oxo-3,9a-diphenyl-4,5,5a,6,7,9a-hexahydro-2H-benzo[g]indazole-8-carbonitrile]", "values": [{"measurement": "IC50", "result": 16.9, "unit": "nM"}]}
{"smiles": "C[C@@H]1C(=O)C(C#N)=C[C@]2(c3ccccc3)c3nn(C)cc3CC[C@@H]12", "note": "[Example 52, (5aS,6S,9aR)-2,6-dimethyl-7-oxo-9a-phenyl-4,5,5a,6,7,9a-hexahydro-2H-benzo[g]indazole-8-carbonitrile]", "values": [{"measurement": "IC50", "result": 53.2, "unit": "nM"}]}
{"smiles": "C[C@@H]1C(=O)C(C#N)=C[C@]2(c3ccccc3)c3nc(-c4ccc(O)cc4)ncc3CC[C@@H]12", "note": "[Example 114, (6aS,7S,10aR)-2-(4-hydroxyphenyl)-7-methyl-8-oxo-10a-phenyl-5,6,6a,7,8,10a-hexahydrobenzo[h]quinazoline-9-carbonitrile]", "values": [{"measurement": "IC50", "result": 5, "unit": "nM"}]}
{"smiles": "C[C@@H]1C(=O)C(C#N)=C[C@]2(c3ccccc3)c3nn(C)c(-c4cccc(-c5ccc(O)cc5)c4)c3CC[C@@H]12", "note": "[Example 170, (5aS,6S,9aR)-3-(4′-hydroxybiphenyl-3-yl)-2,6-dimethyl-7-oxo-9a-phenyl-4,5,5a,6,7,9a-hexahydro-2H-benzo[g]indazole-8-carbonitrile]", "values": [{"measurement": "IC50", "result": 6.96, "unit": "nM"}]}
{"smiles": "C[C@@H]1C(=O)C(C#N)=C[C@]2(c3ccccc3)c3n[nH]c(-c4cccnc4)c3CC[C@@H]12", "note": "[Example 86, (5aS,6S,9aR)-6-methyl-7-oxo-9a-phenyl-3-(pyridin-3-yl)-4,5,5a,6,7,9a-hexahydro-2H-benzo[g]indazole-8-carbonitrile]", "values": [{"measurement": "IC50", "result": 3.95, "unit": "nM"}]}
{"smiles": "C[C@@H]1C(=O)C(C#N)=C[C@]2(c3ccccc3)c3nn(C)c(-c4cccc(-c5cn[nH]c5)c4)c3CC[C@@H]12", "note": "[Example 167, (5aS,6S,9aR)-2,6-dimethyl-7-oxo-9a-phenyl-3-[3-(1H-pyrazol-4-yl)phenyl]-4,5,5a,6,7,9a-hexahydro-2H-benzo[g]indazole-8-carbonitrile]", "values": [{"measurement": "IC50", "result": 3.27, "unit": "nM"}]}
{"smiles": "C[C@@H]1C(=O)C(C(N)=O)=C[C@]2(Cc3ccccc3)c3nn(C)c(-c4ccccc4)c3CC[C@@H]12", "note": "(racemic) [Example 165, rac-(5aS,6S,9aR)-9a-benzyl-2,6-dimethyl-7-oxo-3-phenyl-4,5,5a,6,7,9a-hexahydro-2H-benzo[g]indazole-8-carboxamide]", "values": [{"measurement": "IC50", "result": 706, "unit": "nM"}]}
{"smiles": "C[C@@H]1C(=O)C(C#N)=C[C@]2(c3ccccc3)c3nc(-c4cc(Br)ccc4O)ncc3CC[C@@H]12", "note": "[Example 111, (6aS,7S,10aR)-2-(5-bromo-2-hydroxyphenyl)-7-methyl-8-oxo-10a-phenyl-5,6,6a,7,8,10a-hexahydrobenzo[h]quinazoline-9-carbonitrile]", "values": [{"measurement": "IC50", "result": 12.3, "unit": "nM"}]}
{"smiles": "C[C@@H]1C(=O)C(C#N)=C[C@]2(c3ccccc3)c3n[nH]c(-c4ccnnc4)c3CC[C@@H]12", "note": "[Example 140, (5aS,6S,9aR)-6-methyl-7-oxo-9a-phenyl-3-(pyridazin-4-yl)-4,5,5a,6,7,9a-hexahydro-2H-benzo[g]indazole-8-carbonitrile]", "values": [{"measurement": "IC50", "result": 8.45, "unit": "nM"}]}
{"smiles": "CC(=O)n1cc(-c2nc(C)nc3c2CC[C@H]2[C@H](C)C(=O)C(C#N)=C[C@]32c2ccccc2)cn1", "note": "[Example 76, (6aS,7S,10aR)-4-(1-acetyl-1H-pyrazol-4-yl)-2,7-dimethyl-8-oxo-10a-phenyl-5,6,6a,7,8,10a-hexahydrobenzo[h]quinazoline-9-carbonitrile]", "values": [{"measurement": "IC50", "result": 1.91, "unit": "nM"}]}
{"smiles": "C[C@@H]1C(=O)C(C#N)=C[C@]2(c3ccccc3)c3n[nH]c(-c4cncnc4)c3CC[C@@H]12", "note": "[Example 87, (5aS,6S,9aR)-6-methyl-7-oxo-9a-phenyl-3-(pyrimidin-5-yl)-4,5,5a,6,7,9a-hexahydro-2H-benzo[g]indazole-8-carbonitrile]", "values": [{"measurement": "IC50", "result": 4.18, "unit": "nM"}]}
{"smiles": "C[C@@H]1C(=O)C(C#N)=C[C@]2(c3ccccc3)c3nn(C(=O)Nc4cccnc4)cc3CC[C@@H]12", "note": "[Example 48, (5aS,6S,9aR)-8-cyano-6-methyl-7-oxo-9a-phenyl-N-(pyridin-3-yl)-4,5,5a,6,7,9a-hexahydro-2H-benzo[g]indazole-2-carboxamide]", "values": [{"measurement": "IC50", "result": 40.1, "unit": "nM"}]}
{"smiles": "Cc1nc(-c2ccc(-c3cncnc3)cc2)c2c(n1)[C@@]1(c3ccccc3)C=C(C#N)C(=O)[C@@H](C)[C@@H]1CC2", "note": "[Example 129, (6aS,7S,10aR)-2,7-dimethyl-8-oxo-10a-phenyl-4-[4-(pyrimidin-5-yl)phenyl]-5,6,6a,7,8,10a-hexahydrobenzo[h]quinazoline-9-carbonitrile]", "values": [{"measurement": "IC50", "result": 13, "unit": "nM"}]}
{"smiles": "Cc1nc(-c2ccnnc2)c2c(n1)[C@@]1(c3ccccc3)C=C(C#N)C(=O)[C@@H](C)[C@@H]1CC2", "note": "[Example 172, (6aS,7S,10aR)-2,7-dimethyl-8-oxo-10a-phenyl-4-(pyridazin-4-yl)-5,6,6a,7,8,10a-hexahydrobenzo[h]quinazoline-9-carbonitrile]", "values": [{"measurement": "IC50", "result": 49.4, "unit": "nM"}]}
{"smiles": "C[C@@H]1C(=O)C(C#N)=C[C@]2(Cc3ccccc3)c3c(cnn3C)CC[C@@H]12", "note": "(racemic) [Example 163, rac-(5aS,6S,9aR)-9a-benzyl-1,6-dimethyl-7-oxo-4,5,5a,6,7,9a-hexahydro-1H-benzo[g]indazole-8-carbonitrile]", "values": [{"measurement": "IC50", "result": 406, "unit": "nM"}]}
{"smiles": "COc1ccc([C@]23C=C(C#N)C(=O)[C@@H](C)[C@@H]2CCc2c(-c4cncn4C)nc(C)nc23)cc1", "note": "[Example 174, (6aS,7S,10aR)-10a-(4-methoxyphenyl)-2,7-dimethyl-4-(1-methyl-1H-imidazol-5-yl)-8-oxo-5,6,6a,7,8,10a-hexahydrobenzo[h]quinazoline-9-carbonitrile]", "values": [{"measurement": "IC50", "result": 1.9, "unit": "nM"}]}
